Assay results taken from paper PMC3983396 (Journal of medicinal chemistry, 2014).

What was measured:
[1] = Water solubility of salts; format: physicochemical; conditions: compared to the salts of monocyclic amines (7m and 7s)
[2] = tested on: PARP cleavage in MCF-7 and MDA-MB-231 cells; assay: PARP cleavage, Western blot; format: cell-based, human; conditions: 24 h, 1 μM
[3] = tested on: CDK6; conditions: read-out: IC50 CDK6; cited from earlier work
[4] = tested on: MCF-7 and MDA-MB-231 cells; assay: Flow cytometry after prolonged treatment; format: cell-based, human; conditions: greater than 48 h
[5] = tested on: CDK4; conditions: read-out: IC50 CDK4; cited from earlier work
[6] = tested on: MDA-MB-231 tumor xenograft; assay: Orthotopic nude mouse assay; format: in vivo
[7] = tested on: CDKs 1, 2, 5, 8 and 9; assay: In vitro kinase assay, other CDKs; format: biochemical; conditions: data not shown
[8] = tested on: CD-1 female mice; conditions: CD-1, mouse, in vivo
[9] = tested on: tumor cells; assay: Induction of apoptosis of tumor cells; format: cell-based
[10] = tested on: human tumor cell lines; assay: Growth arrest of a panel of human tumor cell lines; format: cell-based; conditions: read-out: GI50 values, growth arrest of most tumor cell lines
[11] = tested on: AKT phosphorylation in MDA-MB-231 cells; assay: AKT phosphorylation; format: cell-based, human; conditions: MDA-MB-231, increasing concentrations, 24 h

For `N#Cc1cc2cnc(Nc3ccc(N4CCOCC4)cc3)nc2n(C2CCCC2)c1=O` [7t, 8-Cyclopentyl-2-(4-morpholin-4-yl-phenylamino)-7-oxo-7,8-dihydro-pyrido[2,3-d]pyrimidine-6-carbonitrile], the “water solubility of salts” value [1] was “enhanced water solubility”.

With `N#Cc1cc2cnc(N3CCN(c4ccc(C(F)(F)F)cn4)CC3)nc2n(C2CCCC2)c1=O` [7w, 8-Cyclopentyl-7-oxo-2-[4-(5-trifluoromethyl-pyridin-2-yl)-piperazin-1-yl]-7,8-dihydro-pyrido[2,3-d]pyrimidine-6-carbonitrile] the “water solubility of salts” value [1] was “enhanced water solubility”.

In the case of `CC(=O)c1c(C)c2cnc(Nc3ccc(N4CCNCC4)cn3)nc2n(C2CCCC2)c1=O` [PD-0332991, Palbociclib, reference compound], the “PARP cleavage (~89 kDa cleaved polypeptide)” value [2] is listed as “not observed”, the IC50 [3] is listed as 15 nM and the “sub-G1 population (apoptosis)” value [4] is listed as “absent”. For the same compound, the IC50 [5] was […].

For `CN1CCN(c2ccc(Nc3ncc4cc(C#N)c(=O)n(C5CCCC5)c4n3)nc2)CC1` [7v, 8-Cyclopentyl-2-[5-(4-methyl-piperazin-1-yl)-pyridin-2-ylamino]-7-oxo-7,8-dihydro-pyrido[2,3-d]pyrimidine-6-carbonitrile], the “water solubility of salts” value [1] was “enhanced water solubility”.

With `N#Cc1cc2cnc(Nc3ccc(N4CCOCC4)cn3)nc2n(C2CCCC2)c1=O` [7u, 8-Cyclopentyl-2-(5-morpholin-4-yl-pyridin-2-ylamino)-7-oxo-7,8-dihydro-pyrido[2,3-d] pyrimidine-6-carbonitrile] the “water solubility of salts” value [1] was “enhanced water solubility”.

For `CN1CCN(c2ccc(Nc3ncc4cc(C#N)c(=O)n(C5CCCC5)c4n3)cc2)CC1` [7x, 8-Cyclopentyl-2-[4-(4-methyl-piperazin-1-yl)-phenylamino]-7-oxo-7,8-dihydro-pyrido[2,3-d]pyrimidine-6-carbonitrile], the tumor growth ([6]; 50 mg/kg Q2D IP, 21 day period) was “dose-dependent inhibition of tumor growth”, the “signs of toxicity in treated groups” value ([6]; 50 mg/kg Q2D IP, body weights) was “No overt signs of toxicity” and the “tumor weight at the end-point of the study” value ([6]; data not shown) was “decrease in tumor weight”. The “PARP cleavage (~89 kDa cleaved polypeptide)” value [2] was “dose-dependent accumulation of the ~89 kDa cleaved PARP polypeptide”, the “inhibitory activity against CDKs 1, 2, 5, 8 and 9” value [7] was “little inhibitory activity” and the “mice surviving more than 10 days after injection” value [8] was 100%. The “concentration inducing apoptosis of tumor cells” value [9] was 30 to 100 nM, the “sub-G1 population (apoptosis)” value [4] was “appearance of a sub-G1 population” and the GI50 [10] was 25 to 2000 nM. For the same compound, the “phosphorylation of AKT (Ser473)” value [11] was “inhibits the phosphorylation of AKT”.
